This note sets out measurements from paper PMC11650737, “Developing MYC Degraders Bearing the Von Hippel–Lindau Ligand to Target the “Undruggable” MYC” (ACS Pharmacology & Translational Science, 2024).

Experiment [1] deals with T1, recombinant bHLH-MYC protein (Homo sapiens, UniProt P01106).
T1 construct: The recombinant bHLHZ-Myc protein carrying an aminoterminal His6-tag; made in house; host or cells: bacteria
The experiment in a line: Direct binding to MYC by microscale thermophoresis (MST). The following applies: compound 200 μM, labeled MYC 25 nM. Here is the method: To investigate the capacity of MYC degraders to directly bind to MYC, microscale thermophoresis (MST) experiments were performed using recombinant bHLH-MYC protein. MST is a very sensitive, recently developed method based on the shift of fluorescent molecules moving in a temperature gradient that can be perturbed by interactions with other molecules. In this binding assay, a His6-tagged bHLH-MYC protein was fluorescently labeled via its hexa-histidine tag and subjected to MST measurement in the absence and in the presence of MYC degraders. All compounds tested shifted MYC thermophoresis (Figure 4), as shown by normalized fluorescence values, a clear indication that they bound directly to MYC. MST experiments were also run under identical conditions using two reference Myc inhibitors as positive controls: the biphenyl pyrazole MYCi361 and a thiazolidinone derivative, 10058-F4. Both are well-characterized MYC binders: The first one has been used as a POI ligand for the PROTACs designed and synthesized in this work, and the latter is widely known to inhibit MYC by specifically disrupting the MYC–Max complex formation.
Figure 4 Assay of direct binding to MYC by microscale thermophoresis (MST): MST of fluorescently labeled MYC (25 nM) mixed with several MYC degraders (200 μM) or the solvent alone (DMSO). MST of MYC binders 10058-F4 and MYCi361 used as positive controls. Data are shown as mean ± SEM.
Microscale thermophoresis (MST) assay was used to determine whether PROTACs bind directly to MYC. The recombinant bHLHZ-Myc protein carrying an aminoterminal His6-tag was expressed in bacteria from a plasmid kindly provided by George Sianidis (BRFAA, Greece) and purified, as previously described,[33] with minor modifications. […] MST was measured using a Monolith NT.115Pico with a red filter at an ambient temperature of 25 °C. […] Results were analyzed using the software provided with the Monolith instrument. Data are reported as ΔFnorm, which results from subtracting the normalized fluorescence value (Fnorm) of MYC in the absence of PROTAC from Fnorm in excess of PROTAC (bound state).

For another experiment, the system named is PC3 cells. The experiment in a line: Cell viability (MTT) assay, PC3. The experiment is classed as cell-based, human. The following applies: Homo sapiens, PC-3, 72 h, read-out: IC50 (antiproliferative effect). Here is the method: The antiproliferative activity of the synthesized compounds was tested in cell viability assays optimally set up for various cancer cell lines (results are depicted in Table 2, n = 3, average IC50 (μM) ± SD).
Cells were plated at a density of 5 × 10^3 cells per well on 96-well plates. After 24 h of incubation (37 °C, 5% CO2), the cell medium was removed, and compounds were added at selected concentrations (0.1–100 μM), followed by incubation for 72 h. Control cells were treated with 0.4% DMSO medium to match the conditions in the wells where drugs were added. After 72 h, the medium was removed, and the 3-(4,5-dimethylthiazol-2-yl)-2,5-diphenyltetrazolium bromide (MTT) solution (0.3 mg/mL in PBS) was added to cells for 3 h under no light conditions. The MTT solution was removed, and the formazan crystals were dissolved in 100 μL of DMSO. The optical density was measured at 570 nm with a reference wavelength of 690 nm using an absorbance microplate reader (SpectraMax 190, Molecular Devices, Sunnyvale, CA, USA). The half-maximal inhibitory concentration (IC50) was calculated based on a four-parameter logistic equation, generating a cell viability curve, using GraphPad Prism 6.01 (GraphPad Software, Inc.). Two concentrations of an established drug, Docetaxel (100 nM and 1 nM), were used in each experiment as a positive control. The resulting absorbance values were used instead of IC50 calculation. Each point was the result of three independent experiments performed in triplicate.

T1 sequence (P01106 368-452 limits assumed): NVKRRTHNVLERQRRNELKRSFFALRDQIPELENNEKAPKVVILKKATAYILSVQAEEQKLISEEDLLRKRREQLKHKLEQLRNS

On to `Cc1ncsc1-c1ccc(CNC(=O)[C@@H]2C[C@@H](O)CN2C(=O)[C@@H](NC(=O)CCC(=O)NCCCOc2ccc(-c3cc(C(F)(F)F)nn3C)c(O)c2-c2cc(C(F)(F)F)cc(C(F)(F)F)c2)C(C)(C)C)cc1` [CSI86], for which the “direct binding to MYC (shift of MYC thermophoresis)” value in experiment [1] is recorded as “equally potent”. Further, in the experiment with PC3 cells, the IC50 is 18 ± 7 µM.

For `Cc1ncsc1-c1ccc(CNC(=O)[C@@H]2C[C@@H](O)CN2C(=O)[C@@H](NC(=O)CCCC(=O)NCCCOc2ccc(-c3cc(C(F)(F)F)nn3C)c(O)c2-c2cc(C(F)(F)F)cc(C(F)(F)F)c2)C(C)(C)C)cc1` [CSI107], the “direct binding to MYC (shift of MYC thermophoresis)” value in experiment [1] is given as “equally potent”. Further, in the experiment on PC3 cells, the IC50 came out at 13 ± 7 µM.

Turning to `Cc1ncsc1-c1ccc(CNC(=O)[C@@H]2C[C@@H](O)CN2C(=O)[C@@H](NC(=O)COCCOCC(=O)NCCCOc2ccc(-c3cc(C(F)(F)F)nn3C)c(O)c2-c2cc(C(F)(F)F)cc(C(F)(F)F)c2)C(C)(C)C)cc1` [CSI135], the “direct binding to MYC (shift of MYC thermophoresis)” value in experiment [1] is on record as “equally potent”. In the experiment with PC3 cells, the IC50 turned out to be 25 ± 2 µM.
